Data taken from US8486939B2, “Pyrimidinyl and 1,3,5-triazinyl benzimidazoles and their use in cancer therapy” (Pathway Therapeutics Inc., priority 2009, dated 2013).

How the values were obtained:
NZB5 = test: Cellular growth inhibition (3H-thymidine incorporation); type: cell-based; conditions: Homo sapiens, five days incubation, 3H-thymidine over the last 6 hrs, read-out: Cell IC50* NZB5
Procedure: (§1) The compounds were evaluated against two early passage human cell lines NZB5 and NZOV9 (Marshall et al., Oncol. Res. 2004, 14, 297). The cells were grown in ITS medium (α-modified minimal essential medium supplemented insulin, transferrin, selenite, and 5% fetal bovine serum) and grown on 96-well tissue culture plates under an atmosphere of 5% O2, 5% CO2, and 90% N2. Individual wells contained 500-1,000 cells (depending on the growth rate) in a volume of 150 μL. Compounds were added at 10-fold concentration steps to a maximum of 20 μM and plates were incubated for five days, with ^3H-thymidine being added over the last 6 hrs. Cells were harvested and incorporated radioactivity measured. Duplicate samples were analyzed for each compound dose with multiple control samples. Data were fitted by a least-squares method to an exponential of the form y=y0+ae^−bx, where y is the radioactivity (corrected for background and normalized to 100% of the control), x is the […], and y0, a, and b are variables, and the IC50 value defined as the compound concentration reducing ^3H-thymidine levels by 50%.

NZOV9 = test: as above; type: cell-based; conditions: Homo sapiens, five days incubation, 3H-thymidine over the last 6 hrs, read-out: Cell IC50* NZOV9
Procedure: as §1

p110β/p85 = p110β/p85 (Homo sapiens, UniProt P42338); test: Inhibition of isolated enzyme (lipid kinase assay, [γ33P]ATP, TLC); type: biochemical; conditions: recombinant enzyme, 100 μM ATP, 1 hr room temperature, average of two experiments
Procedure: (§2) Compounds were evaluated for their ability to inhibit Class I PI 3-kinase enzymes p110δ/p85, p110α/p85, and p110β/p85. Reaction mixtures comprising 0.1 μg of a recombinant enzyme, 10 μg of L-α-phosphatidylinositol, and 2× Lipid Kinase Buffer (40 mM Tris-HCl, pH 7.4, 200 mM NaCl, 1 mM EDTA), which contains either DMSO only as a control or the test compound in DMSO (the final DMSO concentration is 1%), were activated by the addition of an ATP mix (5 mM MgCl2, 100 μM ATP, and 0.1 μL [γ^33P]ATP). Reactions were incubated at room temperature for 1 hr, and then stopped by the addition of 1M HCl. The lipids were then extracted using a two step procedure. Firstly, 200 μL of chloroform/methanol (1:1) was added, the biphasic reactions mixed and centrifuged briefly, and the inorganic phase was removed and discarded. Following this, 80 μL of methanol:HCl (1:1) was added and the same procedure followed. The organic phase (70 μL) was then transferred to a clean 1.6 mL tube and the reactions were dried using a Speedvac, with no heating, for […]. The reactions were spotted onto TLC plates (Merck Ltd) and developed for 1 hr in propanol-1:2 M acetic acid (13:7). The TLC plates were then dried at room temperature and quantified using a phosphorimager (StormImager, Amersham). Nine compound concentrations were used for each test compound to determine its IC50 value. Each experiment was performed twice and the average IC50 value is used herein.

p110α/p85 = p110α/p85 (Homo sapiens, UniProt P42336); test: as above; type: biochemical; conditions: recombinant enzyme, 100 μM ATP, 1 hr room temperature, average of two experiments
Procedure: as §2

p110δ/p85 = p110δ/p85 (Homo sapiens, UniProt O00329); test: as above; type: biochemical; conditions: recombinant enzyme, 100 μM ATP, 1 hr room temperature, average of two experiments
Procedure: as §2

Chain of p110δ/p85 (O00329 whole entry, species assumed): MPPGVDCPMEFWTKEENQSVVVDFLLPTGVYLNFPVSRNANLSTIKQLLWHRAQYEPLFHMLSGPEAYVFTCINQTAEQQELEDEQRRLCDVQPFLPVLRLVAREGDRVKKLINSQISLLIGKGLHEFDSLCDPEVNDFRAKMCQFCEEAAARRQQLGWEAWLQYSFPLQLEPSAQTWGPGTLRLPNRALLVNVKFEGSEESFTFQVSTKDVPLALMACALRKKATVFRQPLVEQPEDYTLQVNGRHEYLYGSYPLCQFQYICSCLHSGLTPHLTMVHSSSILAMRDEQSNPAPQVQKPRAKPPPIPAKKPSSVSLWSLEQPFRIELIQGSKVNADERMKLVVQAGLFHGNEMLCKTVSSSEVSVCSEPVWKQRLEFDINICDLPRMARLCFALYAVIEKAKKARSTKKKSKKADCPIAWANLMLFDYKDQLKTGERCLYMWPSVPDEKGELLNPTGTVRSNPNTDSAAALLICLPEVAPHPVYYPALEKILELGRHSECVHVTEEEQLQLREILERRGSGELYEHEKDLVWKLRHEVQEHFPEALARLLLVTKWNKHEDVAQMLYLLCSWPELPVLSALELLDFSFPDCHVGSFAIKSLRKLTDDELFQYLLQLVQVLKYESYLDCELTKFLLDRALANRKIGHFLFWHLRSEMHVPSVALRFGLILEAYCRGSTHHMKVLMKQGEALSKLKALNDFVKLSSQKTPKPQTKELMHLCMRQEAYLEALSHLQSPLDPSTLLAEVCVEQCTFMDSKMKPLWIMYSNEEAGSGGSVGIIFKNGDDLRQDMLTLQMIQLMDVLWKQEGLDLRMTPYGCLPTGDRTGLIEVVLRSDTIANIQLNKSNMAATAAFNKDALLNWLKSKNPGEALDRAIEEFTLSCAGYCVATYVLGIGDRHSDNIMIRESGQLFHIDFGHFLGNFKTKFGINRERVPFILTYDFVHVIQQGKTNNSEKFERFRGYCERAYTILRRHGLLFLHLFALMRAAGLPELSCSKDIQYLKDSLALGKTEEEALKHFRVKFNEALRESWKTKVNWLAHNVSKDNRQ
Chain of p110δ/p85 (P27986 whole entry partner, species assumed): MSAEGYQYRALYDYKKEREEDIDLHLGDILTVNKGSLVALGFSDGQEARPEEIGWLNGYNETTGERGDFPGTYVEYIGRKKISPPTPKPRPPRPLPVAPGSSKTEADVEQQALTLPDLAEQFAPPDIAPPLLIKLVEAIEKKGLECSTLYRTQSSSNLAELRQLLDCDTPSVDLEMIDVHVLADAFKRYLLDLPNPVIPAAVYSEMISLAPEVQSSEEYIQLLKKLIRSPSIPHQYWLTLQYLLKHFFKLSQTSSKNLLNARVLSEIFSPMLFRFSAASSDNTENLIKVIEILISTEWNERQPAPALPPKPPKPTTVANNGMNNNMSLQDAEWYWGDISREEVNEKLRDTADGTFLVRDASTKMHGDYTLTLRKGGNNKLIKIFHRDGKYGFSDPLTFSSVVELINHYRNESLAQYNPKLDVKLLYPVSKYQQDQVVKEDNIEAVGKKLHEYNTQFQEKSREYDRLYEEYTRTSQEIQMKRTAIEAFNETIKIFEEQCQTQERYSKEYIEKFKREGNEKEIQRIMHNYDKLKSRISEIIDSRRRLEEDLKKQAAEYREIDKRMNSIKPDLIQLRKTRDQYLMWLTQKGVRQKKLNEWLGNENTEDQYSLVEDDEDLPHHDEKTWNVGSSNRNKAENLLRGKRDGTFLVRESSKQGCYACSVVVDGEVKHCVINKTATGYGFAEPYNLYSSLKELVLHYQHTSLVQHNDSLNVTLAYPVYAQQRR
Chain of p110α/p85 (P42336 whole entry): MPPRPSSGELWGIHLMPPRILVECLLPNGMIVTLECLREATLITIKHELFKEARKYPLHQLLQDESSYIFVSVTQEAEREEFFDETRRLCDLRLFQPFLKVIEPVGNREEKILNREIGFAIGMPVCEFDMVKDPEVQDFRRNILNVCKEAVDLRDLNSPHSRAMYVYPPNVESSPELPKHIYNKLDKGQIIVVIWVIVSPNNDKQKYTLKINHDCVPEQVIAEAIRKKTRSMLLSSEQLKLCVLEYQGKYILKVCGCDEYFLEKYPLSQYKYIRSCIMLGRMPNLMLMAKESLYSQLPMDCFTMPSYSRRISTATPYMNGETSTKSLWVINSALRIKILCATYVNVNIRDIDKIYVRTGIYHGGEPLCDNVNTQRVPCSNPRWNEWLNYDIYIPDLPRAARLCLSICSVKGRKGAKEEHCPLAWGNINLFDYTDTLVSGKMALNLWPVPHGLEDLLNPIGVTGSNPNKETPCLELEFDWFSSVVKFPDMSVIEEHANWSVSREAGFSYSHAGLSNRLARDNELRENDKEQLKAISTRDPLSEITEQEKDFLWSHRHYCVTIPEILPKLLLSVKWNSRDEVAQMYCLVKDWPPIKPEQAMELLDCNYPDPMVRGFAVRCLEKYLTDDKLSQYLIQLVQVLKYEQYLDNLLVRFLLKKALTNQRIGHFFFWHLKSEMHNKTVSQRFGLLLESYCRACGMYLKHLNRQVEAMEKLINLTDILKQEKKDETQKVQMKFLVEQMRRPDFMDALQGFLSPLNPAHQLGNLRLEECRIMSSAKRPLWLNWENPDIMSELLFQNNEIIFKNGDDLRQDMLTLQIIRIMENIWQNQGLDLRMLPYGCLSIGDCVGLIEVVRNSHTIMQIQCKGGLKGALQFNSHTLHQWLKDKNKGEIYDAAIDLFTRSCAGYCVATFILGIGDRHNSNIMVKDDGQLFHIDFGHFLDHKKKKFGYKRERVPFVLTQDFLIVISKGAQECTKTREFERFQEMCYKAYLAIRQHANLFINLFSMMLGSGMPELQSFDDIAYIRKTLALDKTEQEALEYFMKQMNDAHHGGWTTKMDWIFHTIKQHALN
Chain of p110α/p85 (P27986 whole entry partner): as the sequence (P27986 whole entry partner, species assumed) above
Chain of p110β/p85 (P42338 whole entry, species assumed): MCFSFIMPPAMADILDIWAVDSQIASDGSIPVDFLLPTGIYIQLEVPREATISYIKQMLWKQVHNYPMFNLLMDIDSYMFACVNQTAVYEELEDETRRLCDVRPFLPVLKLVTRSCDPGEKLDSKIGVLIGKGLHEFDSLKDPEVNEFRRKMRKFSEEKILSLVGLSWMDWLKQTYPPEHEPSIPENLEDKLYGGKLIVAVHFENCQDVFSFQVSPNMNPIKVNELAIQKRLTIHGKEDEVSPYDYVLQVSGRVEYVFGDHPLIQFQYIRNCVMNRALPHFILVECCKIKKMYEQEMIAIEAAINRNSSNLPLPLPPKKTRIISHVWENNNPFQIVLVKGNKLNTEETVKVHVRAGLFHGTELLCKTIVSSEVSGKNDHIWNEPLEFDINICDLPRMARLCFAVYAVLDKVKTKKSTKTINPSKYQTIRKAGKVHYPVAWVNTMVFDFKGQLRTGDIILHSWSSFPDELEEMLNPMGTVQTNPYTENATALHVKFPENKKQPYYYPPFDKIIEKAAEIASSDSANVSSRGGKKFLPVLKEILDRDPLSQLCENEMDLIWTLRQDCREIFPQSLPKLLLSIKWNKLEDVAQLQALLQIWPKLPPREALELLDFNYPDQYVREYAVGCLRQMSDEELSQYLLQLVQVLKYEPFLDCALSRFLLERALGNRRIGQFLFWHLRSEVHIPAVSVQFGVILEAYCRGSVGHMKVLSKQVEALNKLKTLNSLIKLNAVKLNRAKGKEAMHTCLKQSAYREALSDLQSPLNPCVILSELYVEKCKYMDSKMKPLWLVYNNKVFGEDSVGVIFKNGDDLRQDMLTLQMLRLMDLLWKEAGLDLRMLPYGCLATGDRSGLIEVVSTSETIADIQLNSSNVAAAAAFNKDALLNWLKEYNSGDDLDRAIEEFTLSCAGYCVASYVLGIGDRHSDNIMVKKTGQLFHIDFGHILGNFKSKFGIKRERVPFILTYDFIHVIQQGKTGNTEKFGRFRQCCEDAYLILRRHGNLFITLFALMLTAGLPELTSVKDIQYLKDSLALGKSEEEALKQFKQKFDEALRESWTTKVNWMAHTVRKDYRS
Chain of p110β/p85 (P27986 whole entry partner, species assumed): as the sequence (P27986 whole entry partner, species assumed) above

SMILES | IC50 (p110β/p85) [nM] | IC50 (p110α/p85) [nM] | IC50 (p110δ/p85) [nM] | melting point | IC50 (NZB5) [nM] | IC50 (NZOV9) [nM]
COc1ccc(Nc2nc(N3CCOCC3)nc(-n3c(C(F)F)nc4c(OC)cccc43)n2)nn1 [Example 34, 4-[2-(difluoromethyl)-4-methoxy-1H-benzimidazol-1-yl]-N-(6-methoxy-3-pyridazinyl)-6-(4-morpholinyl)-1,3,5-triazin-2-amine] | 100 to 1000 | < 100 | < 100 | 256 to 259 °C | 100 to 1000 | 100 to 1000
COc1cccc2c1nc(C(F)F)n2-c1nc(Nc2ccncn2)nc(N2CCOCC2)n1 [Example 36, 4-[2-(difluoromethyl)-4-methoxy-1H-benzimidazol-1-yl]-6-(4-morpholinyl)-N-(4-pyrimidinyl)-1,3,5-triazin-2-amine] | 100 to 1000 | < 100 | < 100 | 234 to 236 °C | < 100 | < 100
FC(F)c1nc2ccccc2n1-c1nc(Nc2ccncn2)nc(N2CCOCC2)n1 [Example 20, 4-[2-(difluoromethyl)-1H-benzimidazol-1-yl]-6-(4-morpholinyl)-N-(4-pyrimidinyl)-1,3,5-triazin-2-amine] | – | < 100 | < 100 | 233 to 235 °C | 100 to 1000 | 100 to 1000
COc1cccc2c1nc(C(F)F)n2-c1nc(Nc2ccc(N)nc2)nc(N2CCOCC2)n1 [Example 37, N^5-[4-[2-(difluoromethyl)-4-methoxy-1H-benzimidazol-1-yl]-6-(4-morpholinyl)-1,3,5-triazin-2-yl]-2,5-pyridinediamine] | 100 to 1000 | < 100 | < 100 | 267 to 270 °C | < 100 | < 100
FC(F)c1nc2ccccc2n1-c1nc(Nc2cnccn2)nc(N2CCOCC2)n1 [Example 22, 4-[2-(difluoromethyl)-1H-benzimidazol-1-yl]-6-(4-morpholinyl)-N-(2-pyrazinyl)-1,3,5-triazin-2-amine] | – | < 100 | < 100 | 271 to 274 °C | 100 to 1000 | 100 to 1000
FC(F)c1nc2ccccc2n1-c1nc(Nc2cncnc2)nc(N2CCOCC2)n1 [Example 21, 4-[2-(difluoromethyl)-1H-benzimidazol-1-yl]-6-(4-morpholinyl)-N-(5-pyrimidinyl)-1,3,5-triazin-2-amine] | – | < 100 | < 100 | 290 to 292 °C | 100 to 1000 | 100 to 1000
FC(F)c1nc2ccccc2n1-c1nc(Nc2ncccn2)nc(N2CCOCC2)n1 [Example 19, 4-[2-(difluoromethyl)-1H-benzimidazol-1-yl]-6-(4-morpholinyl)-N-(2-pyrimidinyl)-1,3,5-triazin-2-amine] | – | 100 to 1000 | – | 261 to 263 °C | 100 to 1000 | 100 to 1000
COc1ncc(Nc2nc(N3CCOCC3)nc(-n3c(C(F)F)nc4c(OC)cccc43)n2)cn1 [Example 40, 4-[2-(difluoromethyl)-4-methoxy-1H-benzimidazol-1-yl]-N-(2-methoxy-5-pyrimidinyl)-6-(4-morpholinyl)-1,3,5-triazin-2-amine] | 100 to 1000 | < 100 | < 100 | – | 100 to 1000 | 100 to 1000
COc1cccc2c1nc(C(F)F)n2-c1nc(Nc2cnc(N(C)CCCN(C)C)nc2)nc(N2CCOCC2)n1 [Example 43, N^5-[4-[2-(difluoromethyl)-4-methoxy-1H-benzimidazol-1-yl]-6-(4-morpholinyl)-1,3,5-triazin-2-yl]-N^2-[3-(dimethylamino)propyl]-N^2-methyl-2,5-pyrimidinediamine] | – | < 100 | < 100 | 97 to 99 °C | – | –
FC(F)c1nc2ccccc2n1-c1nc(-c2cncnc2)cc(N2CCOCC2)n1 [Example 55, 2-[2-(difluoromethyl)-1H-benzimidazol-1-yl]-6-(4-morpholinyl)-4,5′-bipyrimidine] | – | 100 to 1000 | 100 to 1000 | 209 to 211 °C | – | –
FC(F)c1nc2ccccc2n1-c1nc(Nc2cncnc2)nc(N2CCOCC2)n1 [Example 35, 4-[2-(difluoromethyl)-1H-benzimidazol-1-yl]-6-(4-morpholinyl)-N-(5-pyrimidinyl)-1,3,5-triazin-2-amine] | 100 to 1000 | – | – | – | – | –
COc1cccc2c1nc(C(F)F)n2-c1nc(N2CCOCC2)nc(-n2cccn2)n1 [Example 63, 2-(Difluoromethyl)-4-methoxy-1-[4-(4-morpholinyl)-6-(1H-pyrazol-1-yl)-1,3,5-triazin-2-yl]-1H-benzimidazole] | – | < 100 | < 100 | 274 to 277 °C | – | –
COc1cccc2c1nc(C(F)F)n2-c1nc(Nc2cnc(Cl)nc2)nc(N2CCOCC2)n1 [Example 41, N-(2-chloro-5-pyrimidinyl)-4-[2-(difluoromethyl)-4-methoxy-1H-benzimidazol-1-yl]-6-(4-morpholinyl)-1,3,5-triazin-2-amine] | – | < 100 | < 100 | 295 °C (dec.) | – | –

Further lines, with some results ahead:

IC50 (p110β/p85) [nM] | IC50 (p110α/p85) [nM] | IC50 (p110δ/p85) [nM] | melting point | SMILES | IC50 (NZB5) [nM] | IC50 (NZOV9) [nM]
> 10000 | > 10000 | 1000 to 10000 | 245 to 248 °C | FC(F)c1nc2ccccc2n1-c1nc(Sc2ccccc2)nc(N2CCOCC2)n1 [Example 11, 2-(difluoromethyl)-1-[4-(4-morpholinyl)-6-(phenylsulfanyl)-1,3,5-triazin-2-yl]-1H-benzimidazole] | > 10000 | > 10000
– | 100 to 1000 | 100 to 1000 | 270 to 273 °C | FC(F)c1nc2ccccc2n1-c1nc(Nc2cnc3ccccc3c2)nc(N2CCOCC2)n1 [Example 18, N-[4-[2-(difluoromethyl)-1H-benzimidazol-1-yl]-6-(4-morpholinyl)-1,3,5-triazin-2-yl]-3-quinolinamine] | 100 to 1000 | 100 to 1000
100 to 1000 | < 100 | < 100 | 222 to 224 °C | FC(F)c1nc2ccccc2n1-c1nc(Nc2ccncc2)nc(N2CCOCC2)n1 [Example 17, 4-[2-(difluoromethyl)-1H-benzimidazol-1-yl]-6-(4-morpholinyl)-N-(4-pyridinyl)-1,3,5-triazin-2-amine] | < 100 | < 100
– | 100 to 1000 | – | 229 to 231 °C | FC(F)c1nc2ccccc2n1-c1nc(Oc2cccnc2)nc(N2CCOCC2)n1 [Example 24, 2-(difluoromethyl)-1-[4-(4-morpholinyl)-6-(3-pyridinyloxy)-1,3,5-triazin-2-yl]-1H-benzimidazole] | 1000 to 10000 | 1000 to 10000
– | 100 to 1000 | – | 188 to 190 °C | FC(F)c1nc2ccccc2n1-c1nc(NCc2ccncc2)nc(N2CCOCC2)n1 [Example 15, 4-[2-(difluoromethyl)-1H-benzimidazol-1-yl]-6-(4-morpholinyl)-N-(4-pyridinylmethyl)-1,3,5-triazin-2-amine] | 100 to 1000 | 100 to 1000
100 to 1000 | 1000 to 10000 | < 100 | 147 to 150 °C | CN(Cc1ccccc1)c1nc(N2CCOCC2)nc(-n2c(C(F)F)nc3ccccc32)n1 [Example 9, N-benzyl-4-[2-(difluoromethyl)-1H-benzimidazol-1-yl]-N-methyl-6-(4-morpholinyl)-1,3,5-triazin-2-amine] | – | 100 to 1000
– | < 100 | < 100 | 230 to 232 °C | FC(F)c1nc2ccccc2n1-c1nc(Nc2ccccn2)nc(N2CCOCC2)n1 [Example 16, 4-[2-(difluoromethyl)-1H-benzimidazol-1-yl]-6-(4-morpholinyl)-N-(2-pyridinyl)-1,3,5-triazin-2-amine] | 100 to 1000 | 100 to 1000
